# Results as given in patent US20100204203A1, “Chemical Compounds 637: Pyridopyrimidinediones as PDE4 Inhibitors” (priority 2007, published 2010).
# Where a name gives a salt, the structure may show the parent alone.
# Target: recombinant Human Phosphodiesterase B2 (PDE4B2) (Homo sapiens, UniProt Q07343)
# Experiment: Human Phosphodiesterase B2 Radiometric Assay (yttrium silicate SPA beads, [3H]cyclic AMP)
# Type: biochemical
# Conditions: recombinant human PDE4B2, radiometric SPA assay, 8 nM [3H]cyclic AMP; read-out: PDE4B2 pIC50 (converted)
# How it was run: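 Read-out is scintillation proximity: yttrium silicate beads (with 18 mM ZnSO4, added to stop the reaction) bind 5′AMP formed from 8 nM [3H]cAMP over 20 min. Beforehand, compound and 0.1 mg/mL enzyme were preincubated 30 min at 30 °C in pH 7.5 HEPES buffer with MgCl2, EGTA and Brij 35; pIC50 values were curve-fitted.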
# Chain of recombinant Human Phosphodiesterase B2 (PDE4B2) (Q07343 1-564 isoform Q07343-2): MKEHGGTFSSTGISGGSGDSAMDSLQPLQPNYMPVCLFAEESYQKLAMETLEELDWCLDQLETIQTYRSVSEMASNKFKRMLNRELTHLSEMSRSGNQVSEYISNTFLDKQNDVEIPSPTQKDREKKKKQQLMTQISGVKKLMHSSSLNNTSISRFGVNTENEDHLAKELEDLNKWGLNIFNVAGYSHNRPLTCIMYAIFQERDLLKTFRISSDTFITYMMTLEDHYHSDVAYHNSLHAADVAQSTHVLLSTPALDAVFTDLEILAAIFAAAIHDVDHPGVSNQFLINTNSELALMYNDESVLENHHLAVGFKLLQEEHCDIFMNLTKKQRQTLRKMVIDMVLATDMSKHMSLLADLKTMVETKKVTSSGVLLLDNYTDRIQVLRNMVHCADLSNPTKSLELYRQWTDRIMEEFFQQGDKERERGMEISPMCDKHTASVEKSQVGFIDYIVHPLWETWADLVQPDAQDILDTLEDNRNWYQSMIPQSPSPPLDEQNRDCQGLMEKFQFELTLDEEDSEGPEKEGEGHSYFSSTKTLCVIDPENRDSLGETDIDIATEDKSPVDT
row,IC50 [nM],SMILES
1,12.6,"CN(C)Cc1ccc(-c2cccc(-n3c(=O)n([C@H]4CC[C@@H](N)CC4)c(=O)c4cc(F)cnc43)c2)cc1 [Example 49, 3-(cis-4-aminocyclohexyl)-1-{4′-[(dimethylamino)methyl]biphenyl-3-yl}-6-fluoropyrido[2,3-d]pyrimidine-2,4(1H,3H)-dione]"
2,0.0501,"Cc1cc(C)n2nc(C(=O)N[C@H]3CC[C@@H](n4c(=O)c5cc(F)cnc5n(-c5cccc(-c6ccc(CN7CCC(N8CCCCC8)CC7)cc6)c5)c4=O)CC3)cc2n1 [Example 362, N-{cis-4-[1-[4′-(1,4′-bipiperidin-1′-ylmethyl)biphenyl-3-yl]-6-fluoro-2,4-dioxo-1,4-dihydropyrido[2,3-d]pyrimidin-3(2H)-yl]cyclohexyl}-5,7-dimethylpyrazolo[1,5-a]pyrimidine-2-carboxamide]"
3,0.0316,"COCCN(C)Cc1ccc(-c2cccc(-n3c(=O)n([C@H]4CC[C@@H](NC(=O)c5cc(C)n(C)n5)CC4)c(=O)c4cc(F)cnc43)c2)cc1 [Example 217, N-{cis-4-[6-fluoro-1-(4′-{[(2-methoxyethyl)(methyl)amino]methyl}biphenyl-3-yl)-2,4-dioxo-1,4-dihydropyrido[2,3-d]pyrimidin-3(2H)-yl]cyclohexyl}-1,5-dimethyl-1H-pyrazole-3-carboxamide]"
4,0.0501,"CC(C)CCNCc1ccc(-c2cccc(-n3c(=O)n([C@H]4CC[C@@H](NC(=O)c5cn6c(n5)CCCC6)CC4)c(=O)c4cc(F)cnc43)c2)cc1 [Example 122, N-{cis-4-[6-fluoro-1-(4′-{[(3-methylbutyl)amino]methyl}biphenyl-3-yl)-2,4-dioxo-1,4-dihydropyrido[2,3-d]pyrimidin-3(2H)-yl]cyclohexyl}-5,6,7,8-tetrahydroimidazo[1,2-a]pyridine-2-carboxamide]"
5,1,"CN1CCCN(Cc2ccc(-c3cccc(-n4c(=O)n([C@H]5CC[C@@H](NC(=O)C(C)(C)N)CC5)c(=O)c5cc(F)cnc54)c3)cc2)CC1 [Example 311, N-{cis-4-[6-fluoro-1-{4′-[(4-methyl-1,4-diazepan-1-yl)methyl]biphenyl-3-yl}-2,4-dioxo-1,4-dihydropyrido[2,3-d]pyrimidin-3(2H)-yl]cyclohexyl}-2-methylalaninamide]"
6,0.01,"Cc1cccc(C(=O)N[C@H]2CC[C@@H](n3c(=O)c4cc(F)cnc4n(-c4cccc(-c5ccc(CN6C[C@@H](C)N[C@@H](C)C6)cc5)c4)c3=O)CC2)n1 [Example 290, N-{cis-4-[1-(4′-{[(3R,5S)-3,5-dimethylpiperazin-1-yl]methyl}biphenyl-3-yl)-6-fluoro-2,4-dioxo-1,4-dihydropyrido[2,3-d]pyrimidin-3(2H)-yl]cyclohexyl}-6-methylpyridine-2-carboxamide]"
7,2.51,"CC(C)N1CCN(Cc2ccc(-c3cccc(-n4c(=O)n([C@H]5CC[C@@H](NCc6cnn(C)c6-c6ccccc6)CC5)c(=O)c5cc(F)cnc54)c3)cc2)CC1 [Example 264, 6-fluoro-1-{4′-[(4-isopropyl-piperazin-1-yl)methyl]biphenyl-3-yl}-3-(cis-4-{[(1-methyl-5-phenyl-1H-pyrazol-4-yl)methyl]amino}cyclohexyl)pyrido[2,3-d] pyrimidine-2,4(1H,3H)-dione]"
8,0.501,"NCc1cccc(-c2cccc(-n3c(=O)n([C@H]4CC[C@@H](NC(=O)c5cn6cc(F)ccc6n5)CC4)c(=O)c4cc(F)cnc43)c2)c1 [Example 31, N-{cis-4-[1-[3′-(aminomethyl)biphenyl-3-yl]-6-fluoro-2,4-dioxo-1,4-dihydropyrido[2,3-d]pyrimidin-3(2H)-yl]cyclohexyl}-6-fluoroimidazo[1,2-a]pyridine-2-carboxamide. Hydrochloride]"
9,0.398,"O=c1c2cc(F)cnc2n(-c2cccc(-c3ccc(O)cc3CN3CC[C@@H](O)C3)c2)c(=O)n1[C@H]1CC[C@@H](NCc2cn3cc(F)ccc3n2)CC1 [Example 326, 6-fluoro-3-(cis-4-{[(6-fluoroimidazo[1,2-a]pyridin-2-yl)methyl]amino}cyclohexyl)-1-(4′-hydroxy-2′-{[(3R)-3-hydroxypyrrolidin-1-yl]methyl}biphenyl-3-yl)pyrido[2,3-d]pyrimidine-2,4(1H,3H)-dione]"
10,0.0501,"O=C(N[C@H]1CC[C@@H](n2c(=O)c3cc(F)cnc3n(-c3cccc(-c4ccccc4O)c3)c2=O)CC1)c1cn2cc(F)ccc2n1 [Example 26, 6-fluoro-N-{cis-4-[6-fluoro-1-(2′-hydroxybiphenyl-3-yl)-2,4-dioxo-1,4-dihydropyrido[2,3-d]pyrimidin-3(2H)-yl]cyclohexyl}imidazo[1,2-a]pyridine-2-carboxamide.]"
11,0.316,"O=c1c2cc(F)cnc2n(-c2cccc(-c3ccc(CN4CCNCC4)cc3)c2)c(=O)n1[C@H]1CC[C@@H](NCc2cn3cc(F)ccc3n2)CC1 [Example 75, 6-fluoro-3-(cis-4-{[(6-fluoroimidazo[1,2-a]pyridin-2-yl)methyl]amino}cyclohexyl)-1-[4′-(piperazin-1-ylmethyl)biphenyl-3-yl]pyrido[2,3-d]pyrimidine-2,4(1H,3H)-dione]"
12,0.00501,"CC(C)NC(=O)CN1CCN(Cc2ccc(-c3cccc(-n4c(=O)n([C@H]5CC[C@@H](NC(=O)c6cn7c(n6)CCCC7)CC5)c(=O)c5cc(F)cnc54)c3)cc2)CC1 [Example 219, N-{cis-4-[6-fluoro-1-[4′-({4-[2-(isopropylamino)-2-oxoethyl]piperazin-1-yl}methyl)biphenyl-3-yl]-2,4-dioxo-1,4-dihydropyrido[2,3-d]pyrimidin-3(2H)-yl]cyclohexyl}-5,6,7,8-tetrahydroimidazo[1,2-a]pyridine-2-carboxamide]"
13,0.00631,"Cc1cccc(C(=O)N[C@H]2CC[C@@H](n3c(=O)c4cc(F)cnc4n(-c4cccc(-c5ccc(CN6CCN(C(C)C)CC6)cc5)c4)c3=O)CC2)n1 [Example 242, N-{cis-4-[6-fluoro-1-{4′-[(4-isopropylpiperazin-1-yl)methyl]biphenyl-3-yl}-2,4-dioxo-1,4-di-hydropyrido[2,3-d]pyrimidin-3(2H)-yl]cyclohexyl}-6-methyl-pyridine-2-carboxamide]"
14,0.1,"O=c1c2cc(F)cnc2n(-c2cccc(-c3cc(O)ccc3CN3CCOCC3)c2)c(=O)n1[C@H]1CC[C@@H](NCc2cn3cc(F)ccc3n2)CC1 [Example 337, 6-fluoro-3-(cis-4-{[(6-fluoroimidazo[1,2-a]pyridin-2-yl)methyl]amino}cyclohexyl)-1-[5′-hydroxy-2′-(morpholin-4-ylmethyl)biphenyl-3-yl]pyrido[2,3-d]pyrimidine-2,4(1H,3H)-dione]"
15,0.0251,"CCN1CCN(Cc2ccc(-c3cccc(-n4c(=O)n([C@H]5CC[C@@H](NC(=O)C6(N(C)C)CC6)CC5)c(=O)c5cc(F)cnc54)c3)cc2)CC1 [Example 130, 1-(dimethylamino)-N-{cis-4-[1-{4′-[(4-ethylpiperazin-1-yl)methyl]biphenyl-3-yl}-6-fluoro-2,4-dioxo-1,4-dihydropyrido[2,3-d]pyrimidin-3(2H)-yl]cyclohexyl}cyclopropane carboxamide]"
16,0.00631,"O=C(N[C@H]1CC[C@@H](n2c(=O)c3cc(F)cnc3n(-c3cccc(-c4ccc(CCCN5CCNCC5)cc4)c3)c2=O)CC1)c1cn2cc(F)ccc2n1 [Example 97, 6-fluoro-N-{cis-4-[6-fluoro-2,4-dioxo-1-[4′-(3-piperazin-1-ylpropyl)biphenyl-3-yl]-1,4-dihydropyrido[2,3-d]pyrimidin-3(2H)-yl]cyclohexyl}imidazo[1,2-a]pyridine-2-carboxamide]"
17,0.794,"Cc1ccc(CN[C@H]2CC[C@@H](n3c(=O)c4cc(F)cnc4n(-c4cccc(-c5ccc(O)cc5CN5CCOCC5)c4)c3=O)CC2)cc1 [Example 278, 6-fluoro-1-[4′-hydroxy-2′-(morpholin-4-ylmethyl)biphenyl-3-yl]-3-{cis-4-[(4-methylbenzyl)amino]cyclohexyl}pyrido[2,3-d] pyrimidine-2,4(1H,3H)-dione]"
18,0.398,"O=c1c2cc(F)cnc2n(-c2cccc(-c3ccc(O)cc3CN3CCCOCC3)c2)c(=O)n1[C@H]1CC[C@@H](NCc2ncc3ccccn23)CC1 [Example 371, 6-fluoro-1-[4′-hydroxy-2′-(1,4-oxazepan-4-ylmethyl)biphenyl-3-yl]-3-{cis-4-[(imidazo[1,5-a]pyridin-3-ylmethyl)amino]cyclohexyl}pyrido[2,3-d]pyrimidine-2,4(1H,3H)-dione]"
19,0.794,"O=c1c2cc(F)cnc2n(-c2cccc(-c3ccc(O)cc3CN3CCOCC3)c2)c(=O)n1[C@H]1CC[C@@H](NCc2ccccc2F)CC1 [Example 285, 6-fluoro-3-{cis-4-[(2-fluorobenzyl)amino]cyclohexyl}-1-[4′-hydroxy-2′-(morpholin-4-ylmethyl)biphenyl-3-yl]pyrido[2,3-d]pyrimidine-2,4(1H,3H)-dione]"
20,100,"O=c1c2cc(F)cnc2n(-c2cccc(-c3ccccc3)c2)c(=O)n1[C@@H]1CCNC1 [Example 107, 1-biphenyl-3-yl-6-fluoro-3-[(3R)-pyrrolidin-3-yl]pyrido[2,3-d]pyrimidine-2,4(1H,3H)-dione]"
21,0.0398,"O=C(Nc1ccccc1)c1cccc(-n2c(=O)n([C@H]3CC[C@@H](NC(=O)c4cn5ccccc5n4)CC3)c(=O)c3cc(F)cnc32)c1 [Example 4, N-{cis-4-[1-[3-(anilinocarbonyl)phenyl]-6-fluoro-2,4-dioxo-1,4-dihydropyrido[2,3-d]pyrimidin-3(2H)-yl]cyclohexyl}imidazo[1,2-c]pyridine-2-carboxamide]"

row,SMILES,IC50 [nM]
1,"O=C(NC1CN2CCC1CC2)c1cccc(-n2c(=O)n([C@H]3CC[C@@H](NC(=O)c4cn5cc(F)ccc5n4)CC3)c(=O)c3cc(F)cnc32)c1 (stereo partly drawn) [Example 42, N-{cis-4-[1-{3-[(1-azabicyclo[2.2.2]oct-3-ylamino)carbonyl]phenyl}-6-fluoro-2,4-dioxo-1,4-dihydropyrido[2,3-d]pyrimidin-3 (2H)-yl]cyclohexyl}-6-fluoroimidazo[1,2-a]pyridine-2-carboxamide]",20
